The values that follow come from EP4745117A1, “NOVEL INDENONE DERIVATIVE AND USE THEREOF” (Amyloid Solution Inc., priority 2023, dated 2025).

Assay [1] deals with Tau-RD3 (Tau repeat domain 3) (Homo sapiens, UniProt P10636). Description: Tau disaggregation test by Thioflavin-T analysis. It is filed as biochemical. To be noted: for EC50: Tau-RD3 35 µM aggregated 24 hours, then compound 0 - 500 µM for 48 hours at 37 °C, concentration disaggregating 50 % of aggregates vs control, read-out: EC50 (µM) Tau; for disaggregation effect for tau protein aggregates: statement in words summarising the Thioflavin-T results. As for the experimental part: (§1) Each compound was dissolved in DMSO to a concentration of 10 mM. Then, the compounds were diluted with 6 % DMSO (in DW) for use.
(§2) Amyloid-beta and tau solutions were prepared by dissolving Aβ1-42 or Tau-RD3 (Tau repeat domain 3) monomers in DMSO to a concentration of 10 mM. Then, the solutions were diluted to 100 µM with DW and stored on ice.
(§3) Meanwhile, Thioflavin-T was dissolved in 50 mM glycine buffer (pH 8.5) to a concentration of 5 mM. Then, the solution was diluted to 5 µM with 50 mM glycine buffer (pH 8.5) and stored in the dark, protected from light.
(§4) The amyloid-beta and tau solutions prepared in Example 1.1 were each placed in 1.5 mL microcentrifuge tubes to a concentration of 50 µM or 35 µM, respectively, and then reacted at 37 °C for 24 hours.
(§5) To each 1.5 mL microcentrifuge tube in which the amyloid-beta and tau aggregation was complete, the compounds were added at concentrations ranging from 500 µM down to 0 µM by serial dilution, and then further reacted at 37 °C for 48 hours.
(§6) 25 µL of each completed reaction solution was added to each well of a 96-well fluorescence analysis plate, and 75 µL of the Thioflavin-T solution was added to each well. After reacting for 5 minutes at room temperature in the dark, the fluorescence value was measured at 450 nm (excitation) and 485 nm (emission) using a multi-mode microplate reader.
(§7) The fluorescence value of the group (control group) treated with only amyloid-beta or tau and aggregated for 72 hours was designated as 100 %. The fluorescence values measured after treating the amyloid-beta and tau aggregates (formed by reacting for 24 hours) with each compound by concentration and reacting for an additional 48 hours were converted to relative values.

The target of assay [2] is T1, Aβ1-42 (Homo sapiens, UniProt P05067).
T1 construct: dissolving Aβ1-42 or Tau-RD3 (Tau repeat domain 3) monomers in DMSO
Description: Amyloid-beta disaggregation test by Thioflavin-T analysis. To be noted: for EC50: Aβ1-42 50 µM aggregated 24 hours, then compound 0 - 500 µM for 48 hours at 37 °C, concentration disaggregating 50 % of aggregates vs control, read-out: EC50 (µM) Aβ; for disaggregation effect for amyloid-beta protein aggregates: statement in words summarising the Thioflavin-T results. It is filed as biochemical. As for the experimental part:
as §1, §2, §3, §4, §5, §6, §7

T1 sequence (P05067 672-713 limits assumed): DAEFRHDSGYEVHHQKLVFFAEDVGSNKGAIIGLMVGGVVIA
Chain of Tau-RD3 (Tau repeat domain 3) (P10636 623-653 limits assumed): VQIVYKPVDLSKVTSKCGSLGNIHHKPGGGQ

As usually defined, the EC50 is the concentration giving half of the maximal effect. In the case of `Cc1ncsc1C1=C(c2scnc2C)c2ccc(N3CCN(CCO)CC3)cc2C1=O` [Compound 81, 6-(4-(2-hydroxyethyl)piperazin-1-yl)-2,3-bis(4-methylthiazol-5-yl)-1H-inden-1-one], the EC50 in assay [1] and in assay [2] was 20 to 100 µM each time.
For the molecule `Cn1cc(C2=C(c3cccnc3)C(=O)c3cc(O)ccc32)cn1` [Compound 42-7, 6-hydroxy-3-(1-methyl-1H-pyrazol-4-yl)-2-(pyridin-3-yl)-1H-inden-1-one], the EC50 in assay [1] was 100 to 250 µM; in assay [2], more than 250 µM.
Turning to `Cc1scnc1C1=C(c2cccnc2)C(=O)c2cc(O)ccc21` [Compound 23-10, 6-hydroxy-3-(5-methylthiazol-4-yl)-2-(pyridin-3-yl)-1H-inden-1-one], the values for the concentration for a half-maximal effect (EC50) in assay [1] and in assay [2] were 20 to 100 µM and more than 250 µM, respectively.
With `O=C1C(c2cncs2)=C(c2cncs2)c2ccc(OCCCc3ccccc3)cc21` [Compound 83, 6-(3-phenylpropoxy)-2,3-di(thiazol-5-yl)-1H-inden-1-one], in assay [1], the EC50 is less than 20 µM and the “disaggregation effect for tau protein aggregates” value is “remarkably excellent disaggregation effect”. Further, in assay [2], the EC50 was less than 20 µM and the “disaggregation effect for amyloid-beta protein aggregates” value is on record as “remarkably excellent disaggregation effect”.
For `Cc1ncsc1C1=C(c2c[nH]nn2)C(=O)c2cc(OCCCc3ccccc3)ccc21` [Compound 31, 3-(4-methylthiazol-5-yl)-6-(3-phenylpropoxy)-2-(1H-1,2,3-triazol-4-yl)-1H-inden-1-one], the concentration for a half-maximal effect (EC50) in assay [1] and in assay [2] was less than 20 µM throughout.
As to `Cc1ncsc1C1=C(c2ccncc2)C(=O)c2cc(O)ccc21` [Compound 39-3, 6-hydroxy-3-(4-methylthiazol-5-yl)-2-(pyridin-4-yl)-1H-inden-1-one], the EC50 in assay [1] and in assay [2] was more than 250 µM in each case.
Consider `CN1CCN(c2cccc(C3=C(c4ccccc4)c4ccccc4C3=O)c2)CC1` [Compound 91, 2-(3-(4-methylpiperazin-1-yl)phenyl)-3-phenyl-1H-inden-1-one], for which the figures for the EC50 in assay [1] and in assay [2] were more than 250 µM and less than 20 µM, respectively.
For `Cc1ncsc1C1=C(c2cccc(CN3CCOCC3)c2)C(=O)c2ccccc21` [Compound 89, 3-(4-methylthiazol-5-yl)-2-(3-(morpholinomethyl)phenyl)-1H-inden-1-one], the figures for the EC50 in assay [1] and in assay [2] were 100 to 250 µM and 20 to 100 µM, respectively.
As to `Cc1ccncc1C1=C(c2scnc2C)c2ccc(OCCCc3ccccc3)cc2C1=O` [Compound 21, 2-(4-methylpyridin-3-yl)-3-(4-methylthiazol-5-yl)-6-(3-phenylpropoxy)-1H-inden-1-one], in assay [1], the EC50 is less than 20 µM and the “disaggregation effect for tau protein aggregates” value was “remarkably excellent disaggregation effect”. In assay [2], the concentration for a half-maximal effect (EC50) was less than 20 µM and the “disaggregation effect for amyloid-beta protein aggregates” value is recorded as “remarkably excellent disaggregation effect”.
For the molecule `Cc1ncsc1C1=C(c2cnn(C)c2)C(=O)c2cc(OCCCc3ccccc3)ccc21` [Compound 28, 2-(1-methyl-1H-pyrazol-4-yl)-3-(4-methylthiazol-5-yl)-6-(3-phenylpropoxy)-1H-inden-1-one], in assay [1], the EC50 is less than 20 µM and the “disaggregation effect for tau protein aggregates” value is on record as “remarkably excellent disaggregation effect”. For the same molecule, in assay [2], the EC50 is less than 20 µM and the “disaggregation effect for amyloid-beta protein aggregates” value is given as “remarkably excellent disaggregation effect”.
As to `CCCOc1ccc2c(c1)C(=O)C(c1ccccc1)=C2c1ccccc1` [Compound 3, 2,3-diphenyl-6-propoxy-1H-inden-1-one], the EC50 in assay [1] was more than 250 µM; in assay [2] it was less than 20 µM.
The corresponding values for `Cc1ncsc1C1=C(C#N)C(=O)c2cc(OCCCc3ccccc3)ccc21` [Compound 34, 3-(4-methylthiazol-5-yl)-1-oxo-6-(3-phenylpropoxy)-1H-indene-2-carbonitrile] are 100 to 250 µM and more than 250 µM.
For `O=C1C(c2ccccc2)=C(c2cccnc2)c2ccccc21` [Compound 9, 2-phenyl-3-(pyridin-3-yl)-1H-inden-1-one], the EC50 in assay [1] and in assay [2] was 20 to 100 µM each time.
